Patent publication EP3108883A1, “THERAPEUTIC USES OF NON-PEPTIDE INHIBITORS OF THE CALCINEURIN - NFAT SIGNALLING PATHWAY” (Fundació Institut de Recerca Biomèdica de Bellvitge, priority 2015, dated 2016)

Target: CN (Homo sapiens, UniProt Q08209)
Assay: In vitro CN phosphatase assay with pNPP as substrate
Assay type: biochemical
Settings: ZnCl2 control at 50 µM
Experimental: CN activity towards the pNPP substrate was measured as described (McAvoy, et al., in Current Protocols in Molecular Biology. (John Wiley & Sons, Inc., 2001), vol. 92, chap. 18, pp. 18). The CN phosphatase assay kit (ENZO Life Sciences, Farmingdale, NY) was used to assess the dephosphorylation of phosphoRII peptide by CN (Mulero et al., 2009, supra.). Potential immunosuppressant CN inhibitors should compete with NFATc for binding, without blocking the general phosphatase activity of CN. As an initial screening test, the phosphatase activity of CN was analyzed using the small molecule p-nitrophenil phosphate (pNPP) as substrate (see Material and Methods). […] The ability of compounds 1-32 in inhibiting CN-NFATc signaling was evaluated in human HEK 293T cells using a luciferase gene reporter assay that includes the NFATc-dependent IL2 promoter (3[…]). After 24 hours of treatment, 50 μM of compounds 6, 9, 17, 19, 23, 25 and 29 inhibit more than 75% NFATc activity, while compounds 1, 2, 4, 8, 10, 14, and 24 inhibit 50-75% NFATc activity (Fig. 2B).

CN phosphatase activity towards pNPP: strongly inhibits enzymatic activity
SMILES: [Cl-].[Cl-].[Zn+2] [ZnCl2]
